In publication PMC3639963, “A New Class of Small Molecule Inhibitor of BMP Signaling” (PLoS ONE, 2013) one finds inhibition data, which are given here for two compounds.

Holding throughout (assay): Nanosyn kinase profiling
Common to all, as to format: biochemical
Holding throughout (conditions): read-out: Percentage inhibition; for inhibition at 0.1 µM: 0.1 µM inhibitor; for inhibition at 1 µM: 1 µM inhibitor

One experiment deals with T1, AXL (Homo sapiens, UniProt P30530).
T1 construct: purchased Nanosyn (enzymatic panel); SGC in-house recombinant human kinases (DSF panel); Invitrogen (ALK1-6)
T1 sequence (P30530 26-894): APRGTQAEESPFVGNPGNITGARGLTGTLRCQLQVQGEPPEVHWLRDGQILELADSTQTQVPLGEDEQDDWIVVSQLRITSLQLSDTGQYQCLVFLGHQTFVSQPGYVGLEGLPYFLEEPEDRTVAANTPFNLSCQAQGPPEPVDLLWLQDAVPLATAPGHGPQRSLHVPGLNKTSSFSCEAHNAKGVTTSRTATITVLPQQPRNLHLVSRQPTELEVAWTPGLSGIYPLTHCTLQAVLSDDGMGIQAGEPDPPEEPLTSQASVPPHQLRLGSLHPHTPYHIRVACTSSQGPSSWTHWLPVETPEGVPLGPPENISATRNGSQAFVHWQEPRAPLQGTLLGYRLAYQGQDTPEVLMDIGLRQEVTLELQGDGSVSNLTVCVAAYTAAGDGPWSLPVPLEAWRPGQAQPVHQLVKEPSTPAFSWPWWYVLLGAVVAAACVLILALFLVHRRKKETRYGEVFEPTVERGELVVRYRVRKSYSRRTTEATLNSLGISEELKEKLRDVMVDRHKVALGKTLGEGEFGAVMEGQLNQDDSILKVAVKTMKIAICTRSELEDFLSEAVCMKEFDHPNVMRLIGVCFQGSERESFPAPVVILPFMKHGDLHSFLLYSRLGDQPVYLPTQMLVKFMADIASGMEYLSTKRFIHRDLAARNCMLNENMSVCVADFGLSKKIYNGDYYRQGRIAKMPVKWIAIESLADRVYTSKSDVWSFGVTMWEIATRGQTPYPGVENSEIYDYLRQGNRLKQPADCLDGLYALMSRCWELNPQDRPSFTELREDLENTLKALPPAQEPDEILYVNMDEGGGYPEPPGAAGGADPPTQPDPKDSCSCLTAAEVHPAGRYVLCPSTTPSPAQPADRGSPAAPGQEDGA
As for the experimental part: (§1) Percentage inhibition was determined for each kinase at both 0.1 µM and 1 µM inhibitor concentration (supplemental Table S2). […]. […]. When visualized on a kinase phylogenetic tree, these were primarily clustered within the receptor tyrosine kinases (TKs) as well as the calmodulin-dependent kinases (CAMKs) (Figure 2C).
(§2) Inhibitor selectivity profiling against 200 human kinases at 0.1 and 1 µM inhibitor concentration was performed by Nanosyn (www.nanosyn.com).

The target in a further experiment is T2, CK1γ1 (Homo sapiens, UniProt Q9HCP0).
T2 construct: purchased Nanosyn (enzymatic panel); SGC in-house recombinant human kinases (DSF panel); Invitrogen (ALK1-6)
As for the experimental part: as §1, §2

The target in a further experiment is T3, MUSK (Homo sapiens, UniProt O15146).
T3 construct: purchased Nanosyn (enzymatic panel); SGC in-house recombinant human kinases (DSF panel); Invitrogen (ALK1-6)
T3 sequence (O15146 24-869): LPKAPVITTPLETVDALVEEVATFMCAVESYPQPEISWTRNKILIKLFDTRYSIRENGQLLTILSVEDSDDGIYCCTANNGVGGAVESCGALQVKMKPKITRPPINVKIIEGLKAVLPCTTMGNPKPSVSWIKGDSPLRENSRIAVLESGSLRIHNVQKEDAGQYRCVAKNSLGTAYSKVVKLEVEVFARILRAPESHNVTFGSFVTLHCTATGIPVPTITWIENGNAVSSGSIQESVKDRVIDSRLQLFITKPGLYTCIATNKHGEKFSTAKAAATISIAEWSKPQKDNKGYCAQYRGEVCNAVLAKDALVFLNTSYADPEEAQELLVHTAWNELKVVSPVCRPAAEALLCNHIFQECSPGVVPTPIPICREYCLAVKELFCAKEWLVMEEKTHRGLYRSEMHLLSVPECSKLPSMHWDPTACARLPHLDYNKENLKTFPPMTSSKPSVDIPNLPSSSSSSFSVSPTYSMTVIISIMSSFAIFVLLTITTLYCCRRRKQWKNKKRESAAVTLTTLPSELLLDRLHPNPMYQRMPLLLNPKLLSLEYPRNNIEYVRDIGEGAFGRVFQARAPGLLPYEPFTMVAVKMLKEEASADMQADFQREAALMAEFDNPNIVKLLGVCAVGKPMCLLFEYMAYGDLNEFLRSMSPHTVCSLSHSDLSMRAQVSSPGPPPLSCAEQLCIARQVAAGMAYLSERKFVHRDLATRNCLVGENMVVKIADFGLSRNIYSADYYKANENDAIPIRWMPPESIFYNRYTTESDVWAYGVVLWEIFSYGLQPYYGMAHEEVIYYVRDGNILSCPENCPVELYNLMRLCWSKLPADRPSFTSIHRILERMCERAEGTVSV
As for the experimental part: as §1, §2

A further experiment addresses T4, P38γ (Homo sapiens, UniProt P53778).
T4 construct: purchased Nanosyn (enzymatic panel); SGC in-house recombinant human kinases (DSF panel); Invitrogen (ALK1-6)
T4 sequence (P53778 1-367): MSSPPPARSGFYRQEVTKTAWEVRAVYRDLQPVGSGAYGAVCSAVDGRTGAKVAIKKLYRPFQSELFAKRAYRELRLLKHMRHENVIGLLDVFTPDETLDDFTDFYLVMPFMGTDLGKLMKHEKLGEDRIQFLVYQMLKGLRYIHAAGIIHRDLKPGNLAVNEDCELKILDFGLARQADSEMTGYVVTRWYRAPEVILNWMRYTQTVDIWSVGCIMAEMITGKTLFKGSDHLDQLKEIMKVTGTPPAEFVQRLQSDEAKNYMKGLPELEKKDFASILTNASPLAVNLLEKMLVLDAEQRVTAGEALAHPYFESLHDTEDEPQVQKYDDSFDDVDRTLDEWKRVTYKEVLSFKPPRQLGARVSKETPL
As for the experimental part:
as §1, §2

The target of the next experiment is T5, PHKγ2 (Homo sapiens, UniProt P15735).
T5 construct: purchased Nanosyn (enzymatic panel); SGC in-house recombinant human kinases (DSF panel); Invitrogen (ALK1-6)
T5 sequence (P15735 1-406): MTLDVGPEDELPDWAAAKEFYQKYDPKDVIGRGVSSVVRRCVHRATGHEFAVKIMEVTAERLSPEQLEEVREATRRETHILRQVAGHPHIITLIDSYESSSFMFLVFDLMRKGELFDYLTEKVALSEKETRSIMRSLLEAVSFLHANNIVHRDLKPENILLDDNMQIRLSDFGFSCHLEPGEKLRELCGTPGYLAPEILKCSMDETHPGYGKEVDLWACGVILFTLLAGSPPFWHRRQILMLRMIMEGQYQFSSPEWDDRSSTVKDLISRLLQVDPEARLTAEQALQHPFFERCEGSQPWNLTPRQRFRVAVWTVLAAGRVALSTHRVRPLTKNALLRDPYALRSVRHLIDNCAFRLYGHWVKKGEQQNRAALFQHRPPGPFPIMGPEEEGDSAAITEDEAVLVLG
As for the experimental part: as §1, §2

For another experiment, the target named is T6, SRC (Homo sapiens, UniProt P12931).
T6 construct: purchased Nanosyn (enzymatic panel); SGC in-house recombinant human kinases (DSF panel); Invitrogen (ALK1-6)
As for the experimental part:
as §1, §2

SMILES strings stand for the structures.

T6 sequence (P12931 whole entry): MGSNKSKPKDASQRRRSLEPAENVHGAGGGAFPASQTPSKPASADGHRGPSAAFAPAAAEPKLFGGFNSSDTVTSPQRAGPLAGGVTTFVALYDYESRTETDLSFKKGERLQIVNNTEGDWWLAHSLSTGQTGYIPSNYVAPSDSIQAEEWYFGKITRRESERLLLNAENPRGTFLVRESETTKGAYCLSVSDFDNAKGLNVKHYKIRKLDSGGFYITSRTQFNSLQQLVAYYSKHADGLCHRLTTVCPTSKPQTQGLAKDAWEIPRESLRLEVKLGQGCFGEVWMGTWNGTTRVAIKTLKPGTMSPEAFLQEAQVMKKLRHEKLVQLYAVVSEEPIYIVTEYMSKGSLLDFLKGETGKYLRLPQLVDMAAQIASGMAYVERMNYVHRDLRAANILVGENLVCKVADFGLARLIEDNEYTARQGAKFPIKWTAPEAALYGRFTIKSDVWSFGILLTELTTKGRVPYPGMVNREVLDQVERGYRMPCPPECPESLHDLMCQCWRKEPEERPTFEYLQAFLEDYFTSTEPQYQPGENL
T2 sequence (Q9HCP0 whole entry): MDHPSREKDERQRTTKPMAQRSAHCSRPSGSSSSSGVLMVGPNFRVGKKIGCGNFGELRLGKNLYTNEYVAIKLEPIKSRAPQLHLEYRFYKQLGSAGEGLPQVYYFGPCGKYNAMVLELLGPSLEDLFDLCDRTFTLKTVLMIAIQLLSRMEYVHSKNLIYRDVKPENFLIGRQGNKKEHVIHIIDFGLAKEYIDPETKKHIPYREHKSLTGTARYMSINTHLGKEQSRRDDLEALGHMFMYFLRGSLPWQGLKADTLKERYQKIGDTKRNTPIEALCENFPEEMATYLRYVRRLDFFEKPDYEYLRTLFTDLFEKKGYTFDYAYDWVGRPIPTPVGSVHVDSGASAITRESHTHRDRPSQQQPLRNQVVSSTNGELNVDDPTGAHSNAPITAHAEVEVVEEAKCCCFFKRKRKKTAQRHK

A word on the inhibition: it is the change of the read-out against control, counted positive when it falls. As for `COc1cc(-c2cc(-c3cccc(O)c3)cnc2N)cc(OC)c1OC` [K02288, 3-[6-amino-5-(3,4,5-trimethoxy-phenyl)-pyridin-3-yl]-phenol], the inhibition at 0.1 µM is 0.9% on AXL; 0% on CK1γ1; 1.2% at MUSK; -1% at P38γ; -3% at PHKγ2; 5.1% on SRC. For the same compound, the inhibition at 1 µM was 1.5% at AXL; 6.1% at CK1γ1; -1% at MUSK; -1% at P38γ; -3% at PHKγ2; 40% at SRC.
Consider `c1ccc2c(-c3cnn4cc(-c5ccc(N6CCNCC6)cc5)cnc34)ccnc2c1` [LDN-193189], for which the inhibition at 0.1 µM at AXL is -4%; at CK1γ1, 3.1%; at MUSK, 5.8%; on P38γ, 1.2%; on PHKγ2, 3.5%; on SRC, 8%. Also, the inhibition at 1 µM came out at 1.1% on AXL; 14% at CK1γ1; 26% on MUSK; 1.3% at P38γ; 4.9% at PHKγ2; 33% at SRC.
